Measurements as given in patent US7862798B2, “Vitamin-targeted imaging agents” (Endocyte, Inc., priority 2002, dated 2011).
“And” between values parts separate entries of the source, which are not always exact repeats. Identical values can stand only once.

Experiments:
[1] = Radiochemical stability by HPLC; type: physicochemical; settings: room temperature, protected from light, at least 24 hours
Description: The radiochemical stability of the radioactive drug substance was determined by HPLC after storing at room temperature protected from light for up to 24 hours. Samples of the ^99mTc-EC20 solution (20 μL) were analyzed using an HPLC system consisting of a Waters 600E Multisolvent Delivery System and 490 UV detector, a Bioscan EC-3200 radiodetector, Laura v1.5 radiochromatogram software, and a Waters Nova-Pak C18 (3.9×150 mm) column. Injected samples were eluted isocratically using an aqueous mobile phase containing 20% methanol and 0.1% trifluoroacetic acid at a flow rate of 1 mL/min. The HPLC analysis was monitored with both the UV detector (280 nm) and the gamma radiodetector.

[2] = Urinary excretion and metabolism (HPLC speciation of urine); type: in vivo, Balb/c mice
Description: The urinary HPLC speciation profile of ^99mTc-EC20 was obtained using Balb/c mice. Mice (˜20 g each) were injected with 1 mCi (6.7 nmol) of ^99mTc-EC20 via a lateral tail vein. Following a 1, 4, or 6 hour time period, groups of two mice were euthanized by CO2 asphyxiation and urine was collected. After filtration through a GV13 Millex filter, the radiochemical speciation was assessed using an HPLC system equipped with a Nova-Pak C18 3.9×150 mm column and a radiochemical detector. The system was isocratically eluted with 20% methanol containing 0.1% TFA at a flow rate of 1 mL/minute.

[3] = Serum protein binding (ultrafiltration), human serum; type: in vitro ADME; settings: room temperature, ultrafiltration 30,000 NMWL
Description: Fresh rat serum, and commercial male human serum (type AB donors, Sigma Chemical Co.) were used to evaluate in vitro binding of ^99mTc˜EC20 to serum proteins. One minute after ^99mTc-EC20 was mixed with 1 mL of serum at room temperature, 0.3 mL of the serum solution was transferred to a clean Amicon Centrifree® ultrafiltration device (30,000 NMWL) in triplicate. Within one minute of loading the centrifuge with the serum solution, the device was spun at 1000×g for 20 minutes at 20° C. 50 μL samples of the original solution, and of the filtrate from each device, was transferred to a clean tube and counted in an automatic gamma counter. A control solution of ^99mTc˜EC20 mixed with 1 mL of normal saline was ultrafiltered in an identical fashion. The percentage of free ^99mTc was calculated for each of the three samples.

Blood clearance = type: in vivo, Balb/c mice
Description: Animals used for this study were maintained on a folate-free diet (Harlan #TD-90261) for approximately three weeks prior to dose administration. […] Furthermore, previous studies have shown that mice placed on a folate-free diet for 3 weeks had maintained a safe serum folate level of 25±7 nM, which is slightly higher than the 9-14 nM concentration measurable in human serum.
The ^99mTc-EC20 solution was prepared on the day of use and had initially contained 100 μg of EC20 per milliliter. The solution was further diluted with sterile saline to prepare working stock solutions. The radiochemical purity of the product was estimated to be ˜94% by TLC. Each animal received a dose of 50 μg/kg EC20 (67 nmol/kg) in approximately 0.1 mL volume i.v. via the tail vein during brief diethyl ether anesthesia. At the designated times (see FIG. 8) post-injection, each animal was euthanized by CO2 asphyxiation, and blood was immediately collected by cardiac puncture.

FR-positive KB cells = assay: Time-dependent cell uptake; type: cell-based, human; parameters: time to half-maximal saturation point: dose or concentration left out as unconfirmed
Description: KB cells were seeded in 12-well Falcon plates and allowed to form sub-confluent monolayers overnight. Following one rinse with 1 mL of fresh FFRPMI/HIFCS, each well received 1 mL of FFRPMI/HIFCS containing 10 nM ^99mTc-EC20. Cells were incubated for predetermined times at 37° C. and then rinsed four times with 1 mL of ice-cold PBS, pH 7.4. The cell monolayers were dissolved in 0.5 mL of PBS, pH 7.4 containing 1% sodium dodecyl sulfate for 15 min at room temperature and then counted for radioactivity using a Packard gamma counter. The protein in each sample was quantitated using a BioRad DC Protein Assay kit, and cellular protein values were converted to cell number using the conversion factor of 2.23×10^−7 mg protein per cell. Final tabulated values were expressed in terms of molecules of EC20 per cell.
The kinetics of ^99mTc-EC20 uptake into FR-positive KB cells was quantitatively measured using this protocol.

## [NH-][C@@H](CNC(=O)CC[C@@H](NC(=O)c1ccc(NCc2cnc3nc(N)[nH]c(=O)c3n2)cc1)C(=O)O)C(=O)[N-][C@@H](CC(=O)O)C(=O)[N-][C@@H](C[S-])C(=O)O.[O]=[Tc+4] [^99mTc-EC20]
[1]
  radiochemical purity on storage: greater than 90%
[2]; Balb/c mice, i.v.
  form excreted into the urine: predominately excreted into the urine in an unmodified form
[2]; throughout four hours post-injection
  proportion of parent drug among radioactive species recovered in urine: approximately 90%
[2]; urine samples, 1 hr, two mice
  Area Percent, Sum C and D (intact 99mTc-EC20): 89.2 Area Percent and 91.1 Area Percent
  Area Percent, peak A (pertechnetate): 8.3 Area Percent and 6.3 Area Percent
  Area Percent, peak B (unknown): 2.5 Area Percent and 2.6 Area Percent
  Area Percent, peak C (isomer 1): 20.4 Area Percent and 18.1 Area Percent
  Area Percent, peak D (isomer 2): 68.8 Area Percent and 73 Area Percent
[2]; urine samples, 4 hr, two mice
  Area Percent, Sum C and D (intact 99mTc-EC20): 85.2 Area Percent and 89.8 Area Percent
  Area Percent, peak A (pertechnetate): 9.4 Area Percent and 10.2 Area Percent
  Area Percent, peak C (isomer 1): 7.3 Area Percent and 11.1 Area Percent
  Area Percent, peak D (isomer 2): 77.9 Area Percent and 78.7 Area Percent
[3]
  associated with the >30 kDa serum protein fraction: 72%
Blood clearance; 50 μg/kg EC20 i.v., Balb/c mouse
  plasma half life: ~4 min
Blood clearance; after four hours, blood assumed 5.5% of body mass
  injected dose remaining in circulation: less than 0.2%
FR-positive KB cells; 10 nM, 37° C.
  time to half-maximal cell association: 9 min
FR-positive KB cells; 10 nM, 37° C., KB cells
  molecules of EC20 cell-associated at steady state: approximately 3.2 million
  time to steady-state uptake: within two hours
FR-positive KB cells; 10-fold higher concentration
  time to half-maximal saturation point: 37 s
